“And” between values parts separate entries of the source, which are not always exact repeats. Identical values can stand only once.
Test system: not given
Experiment: not given
Settings: from CC(C)(CO)Cc1c(I)[nH]c2ccc(-c3cccc(C[C@H](NC(=O)OC(C)(C)C)C(=O)N4CCC[C@@H](C(=O)O)N4)c3)cc12; ester bond; EDCI/HOBt/DIPEA; DCM; 12.8 mM; 0.0 °C; 16.0 h

Compound | ring closure, yield of all isomers [%]
CC1(C)COC(=O)[C@@H]2CCCN(N2)C(=O)[C@@H](NC(=O)OC(C)(C)C)Cc2cccc(c2)-c2ccc3[nH]c(I)c(c3c2)C1 | 79.8

Same assay, conditions: from CC(C)[Si](Oc1cc(C[C@H](NC(=O)OC(C)(C)C)C(=O)N2CCC[C@@H](C(=O)O)N2)cc(-c2ccc3[nH]c(I)c(CC(C)(C)CO)c3c2)c1)(C(C)C)C(C)C; ester bond; EDCI/HOBt/DIPEA; DCM; 22.8 mM; 25.0 °C; 16.0 h

Compound | ring closure, yield of all isomers [%]
CC(C)[Si](Oc1cc2cc(c1)-c1ccc3[nH]c(I)c(c3c1)CC(C)(C)COC(=O)[C@@H]1CCCN(N1)C(=O)[C@@H](NC(=O)OC(C)(C)C)C2)(C(C)C)C(C)C | 50

Test system: NCI-H358 (K-Ras G12C)
Experiment: CellTiter-Glo cell viability assay, NCI-H358
Format: cell-based, human
Settings: Homo sapiens, NCI-H358, Table 5; read-out: H358 Cell Viability assay data (K-Ras G12C, IC50)
Procedure, shortened: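 Compounds dispensed directly onto plated NCI-H358 cells; plates equilibrated to room temperature on day 5 before luminescence read-out. Signal normalized to mean DMSO control (%) and fitted by four-parameter logistic.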

Compound | IC50 [µM]
C=CC(=O)N1CC[C@H](C(=O)N(C)[C@H](C(=O)N[C@H]2Cc3cc(O)cc(c3)-c3ccc4c(c3)c(c(-c3cnn(C)c3[C@H](C)OC)n4CC)CC(C)(C)COC(=O)[C@@H]3CCCN(N3)C2=O)C(C)C)C1 [Compound A166] | < 0.01
C=CC(=O)N1CC[C@H](C(=O)N(C)[C@H](C(=O)N[C@H]2C[C@H]3CN(CCO3)c3ccc4c(c3)c(c(-c3cccnc3[C@H](C)OC)n4CC)CC(C)(C)COC(=O)[C@@H]3CCCN(N3)C2=O)C(C)C)C1 [Compound A378] | 0.1 to 1
CO[C@@H](C)c1ncccc1-c1c2c3cc(ccc3n1CC(F)(F)F)-c1nnc(o1)C[C@H](NC(=O)[C@H](C(C)C)N(C)C(=O)[C@H]1CCN(C(=O)C#CC(C)(C)N3CCC3)C1)C(=O)N1CCC[C@H](N1)C(=O)OCC(C)(C)C2 [Compound A423] | 0.01 to 0.1
C=CC(=O)N1CC[C@H](C(=O)N(C)[C@H](C(=O)N[C@H]2CC3=NN=C(O3)c3ccc4c(c3)c(c(-c3cccnc3[C@H](C)OCC)n4CC(F)(F)F)CC(C)(C)COC(=O)[C@@H]3CCCN(N3)C2=O)C(C)C)C1 [Compound A424] | 0.1 to 1
C=CC(=O)N1CC[C@H](C(=O)N(C)C(C(=O)N[C@H]2C[C@H]3CN(CCO3)c3ccc4c(c3)c(c(-c3cccnc3[C@H](C)OC)n4CC)CC(C)(C)COC(=O)[C@@H]3CCCN(N3)C2=O)C(C)C)C1 (some centres unmarked) [Compound A507] | 0.1 to 1
CO[C@@H](C)c1ncc(N2CCN(C)CC2)cc1-c1c2c3cc(ccc3n1CC(F)(F)F)-c1cccc(c1)C[C@H](NC(=O)[C@H](C(C)C)N(C)C(=O)C1(F)CCN(C(=O)C#CC(C)(C)N(C)C)CC1)C(=O)N1CCC[C@H](N1)C(=O)OCC(C)(C)C2 [Compound A542, 1-(4-(dimethylamino)-4-methylpent-2-ynoyl)-4-fluoro-N-((2S)-1-(((6^1S,4S)-1^2-(2-((S)-1-methoxyethyl)-5-(4-methylpiperazin-1-yl)pyridin-3-yl)-10,10-dimethyl-5,7-dioxo-1^1-(2,2,2-trifluoroethyl)-6^1,6^2,6^3,6^4,6^5,6^6-hexahydro-1^1H-8-oxa-1(5,3)-indola-6(1,3)-pyridazina-2(1,3)-benzenacycloundecaphane-4-yl)amino)-3-methyl-1-oxobutan-2-yl)-N-methylpiperidine-4-carboxamide] | < 0.01

Same assay, conditions: Homo sapiens, NCI-H358, read-out: H358 Cell Viability assay data (K-Ras G12C, IC50, uM), Table 5

Compound | IC50 [µM]
C=CC(=O)N1CC[C@H](C(=O)N(C)[C@H](C(=O)N[C@H]2Cc3cc(O)cc(c3)-c3ccc4c(c3)c(c(-c3cc(C)cnc3[C@H](C)OC)n4CC)CC(C)(C)COC(=O)[C@@H]3CCCN(N3)C2=O)C(C)C)C1 [Compound A167] | < 0.01
CCn1c(-c2cccnc2[C@H](C)OC)c2c3cc(ccc31)-c1cc(O)cc(c1)C[C@H](NC(=O)[C@H](C(C)C)N(C)C(=O)[C@H]1CCN(C(=O)C#CCN3CCOCC3)C1)C(=O)N1CCC[C@H](N1)C(=O)OCC(C)(C)C2 [Compound A182] | < 0.01
C=CC(=O)Nc1ccc(C(=O)N(C)[C@H](C(=O)N[C@H]2Cc3cc(O)cc(c3)-c3ccc4c(c3)c(c(-c3cccnc3[C@H](C)OC)n4CC)CC(C)(C)COC(=O)[C@@H]3CCCN(N3)C2=O)C(C)C)cn1 [Compound A250] | < 0.01
C=CC(=O)N1CC[C@H](C(=O)N(C)[C@H](C(=O)N[C@H]2Cc3nc(cs3)-c3ccc4c(n3)c(c(-c3cccnc3[C@H](C)OC)n4CC)CC(C)(C)COC(=O)[C@@H]3CCCN(N3)C2=O)C(C)C)C1 [Compound A347, (2S)-N-[(7S,13S)-21-ethyl-20-{2-[(1S)-1-methoxyethyl]pyridin-3-yl}-17,17-dimethyl-8,14-dioxo-15-oxa-4-thia-9,21,25,27,28-pentaazapentacyclo[17.5.2.1^{2,5}.1^{9,13}.0^{22,26}]octacosa-1(25),2,5(28),19,22(26),23-hexaen-7-yl]-3-methyl-2-{N-methyl-1-[(3S)-1-(prop-2-enoyl)pyrrolidin-3-yl]formamido}butanamide] | 0.1 to 1
CCn1c(-c2cccnc2[C@H](C)OC)c2c3cc(ccc31)-c1csc(n1)C[C@H](NC(=O)[C@H](C(C)C)N(C)C(=O)N(C)C1CN(C(=O)/C=C/C(C)(C)O)C1)C(=O)N1CCC[C@H](N1)C(=O)OCC(C)(C)C2 [Compound A350] | 0.1 to 1
CCn1c(-c2cccnc2C(C)OC)c2c3cc(ccc31)-c1cccc(c1)CC(NC(=O)C(C(C)C)N1CCC3(CCN(C(=O)C#CC(C)(C)N4CCC4)C3)C1=O)C(=O)N1CCCC(N1)C(=O)OCC(C)(C)C2 (centres unmarked) [Compound A365] | < 0.01
CCn1c(-c2cccnc2[C@H](C)OC)c2c3cc(ccc31)-c1csc(n1)C[C@H](NC(=O)[C@H](C(C)C)N(C)C(=O)N1CC(N(C)C(=O)C#CC(C)(C)N3CCC3)C1)C(=O)N1CCC[C@H](N1)C(=O)OCC(C)(C)C2 [Compound A379] | < 0.01
C=CC(=O)N1CCN(C(=O)N(C)[C@H](C(=O)N[C@H]2Cc3nc(cs3)-c3ccc4c(c3)c(c(-c3cccnc3[C@H](C)OC)n4CC(F)(F)F)CC(C)(C)COC(=O)[C@@H]3CCCN(N3)C2=O)C(C)C)CC1 [Compound A464] | < 0.01
CO[C@@H](COC1CN(C(=O)C#CC(C)(C)N(C)C)C1)C(=O)N[C@H]1Cc2cccc(c2)-c2ccc3c(c2)c(c(-c2cccnc2[C@H](C)OC)n3CC(F)(F)F)CC(C)(C)COC(=O)[C@@H]2CCCN(N2)C1=O [Compound A556] | < 0.01
C=CC(=O)N1CCOC2CCN(C(=O)N(C)C(C(=O)NC3Cc4nc(cs4)-c4ccc5c(c4)c(c(-c4cccnc4C(C)OC)n5CC)CC(C)(C)COC(=O)C4CCCN(N4)C3=O)C(C)C)CC21 (centres unmarked) [Compound A596] | < 0.01
C=CC(=O)N1CC[C@H](C(=O)N(C)[C@H](C(=O)N[C@H]2Cc3cc(CF)cc(c3)-c3ccc4c(c3)c(c(-c3cccnc3[C@H](C)OC)n4CC(F)(F)F)CC(C)(C)COC(=O)[C@@H]3CCCN(N3)C2=O)C(C)C)C1 [Compound A659] | < 0.01

Same assay, conditions: Table 5; read-out: H358 Cell Viability assay data (K-Ras G12C, IC50)

Compound | IC50
C=CC(=O)N1CC2CCC1CN2C(=O)N(C)[C@H](C(=O)N[C@H]1Cc2nc(cs2)-c2ccc3c(c2)c(c(-c2cccnc2[C@H](C)OC)n3CC)CC(C)(C)COC(=O)[C@@H]2CCCN(N2)C1=O)C(C)C [Compound A420] | 0.01 to 0.1 µM
CCn1c(-c2cccnc2C(C)OC)c2c3cc(ccc31)-c1cccc(c1)C[C@H](NC(=O)[C@H](C(C)C)N(C)C(=O)N1CCC13CN(C(=O)C#CC(C)(C)N(C)C)C3)C(=O)N1CCC[C@H](N1)C(=O)OCC(C)(C)C2 (some centres unmarked) [Compound A717] | 0.01 to 0.1 µM
C=CC(=O)N1CC[C@H](C(=O)N(C)[C@H](C(=O)N[C@H]2Cc3cc(O)cc(c3)-c3ccc4c(c3)c(c(-c3ccc(CN5CC[C@@H](O)C5)cc3)n4CC)CC(C)(C)COC(=O)[C@@H]3CCCN(N3)C2=O)C(C)C)C1 [Examples A1] | 0.1 to 1 µM
C=CC(=O)N1CC[C@H](C(=O)N(C)[C@H](C(=O)N[C@H]2Cc3cc(O)cc(c3)-c3ccc4c(c3)c(c(-c3ccc(CN5CCCC5)cc3)n4CC)CC(C)(C)COC(=O)[C@@H]3CCCN(N3)C2=O)C(C)C)C1 [Examples A10] | 0.01 to 0.1 µM
(2R)-2-(((1-(4-(dimethylamino)-4-methylpent-2-ynoyl)azetidin-3-yl)oxy)methyl)-N-((6^3S,4S)-1^1-ethyl-1^2-(2-((S)-1-methoxyethyl)pyridin-3-yl)-10,10-dimethyl-5,7-dioxo-6^1,6^2,6^3,6^4,6^5,6^6-hexahydro-1^1H-8-oxa-1(5,3)-indola-6(1,3)-pyridazina-2(1,3)-benzenacycloundecaphane-4-yl)-3-methylbutanamide [Compound A316] | < 0.01 µM
(2S)-N-[(7S,13S)-21-ethyl-20-[2-(methoxymethyl)pyridin-3-yl]-17,17-dimethyl-8,14-dioxo-15-oxa-4-thia-9,21,27,28-tetraazapentacyclo[17.5.2.1^2,^5.1^9,^13.0^22,^26]octacosa-1(25),2,5(28),19,22(26),23-hexaen-7-yl]-3-methyl-2-{N-methyl-1-[(3S)-1-(prop-2-enoyl)pyrrolidin-3-yl]formamido}butanamide [Compound A194] | < 0.01 µM and 0.01 to 0.1 µM
(2S)-N-[(8S,14S,20P)-22-ethyl-21-{4-[(1S)-1-methoxyethyl]pyridin-3-yl}-18,18-dimethyl-9,15-dioxo-16-oxa-10,22,28-triazapentacyclo[18.5.2.1^2,^6.1^10,^14.0^23,^27]nonacosa-1(26),2,4,6(29),20,23(27),24-heptaen-8-yl]-3-methyl-2-{N-methyl-1-[(3S)-1-(prop-2-enoyl)pyrrolidin-3-yl]formamido}butanamide [Compound A115] | 0.01 to 0.1 µM

Same assay, conditions: read-out: H358 Cell Viability assay data (K-Ras G12C, IC50); Table 5

Compound | IC50 [µM]
C=CC(=O)Nc1ccc(C(=O)N(C)[C@H](C(=O)N[C@H]2Cc3cc(O)cc(c3)-c3ccc4c(c3)c(c(-c3cccnc3[C@H](C)OC)n4CC)CC(C)(C)COC(=O)[C@@H]3CCCN(N3)C2=O)C(C)C)cn1 [Compound A336] | < 0.01
C=CC(=O)N1CCN(C(=O)N(C)[C@H](C(=O)N[C@H]2Cc3nc(cs3)-c3ccc4c(c3)c(c(-c3cccnc3[C@H](C)OC)n4CC(F)(F)F)CC(C)(C)COC(=O)[C@@H]3CCCN(N3)C2=O)C(C)C)CC1 [Compound A465] | < 0.01
C=CC(=O)N1CC[C@H](C(=O)N(C)[C@H](C(=O)N[C@H]2Cc3cccc(c3)-c3ccc4c(c3)c(c(-c3cc(C5=CCN(C)CC5)cnc3[C@H](C)OC)n4CC)CC(C)(C)COC(=O)[C@@H]3CCCN(N3)C2=O)C(C)C)C1 [Compound A514] | 0.1 to 1

From patent EP4806900A2, “RAS INHIBITORS” (Revolution Medicines, Inc., priority 2019, dated 2021)
